According to patent US12606556B2, “TYK-2 inhibitor” (BEIGENE, LTD., priority 2020, dated 2026):
Like-named read-outs stand apart in the source and are kept apart here.

Legend:
[1] = target: T1, TYK2-JH2 (aa 575-869, in-house) protein (Homo sapiens, UniProt P29597); experiment: TYK2-JH2 biochemical assay (HTRF, blocking of TYK2-JH2 protein with its probe); assay type: binding; conditions: for IC50: HTRF, 0.2 nM recombinant TYK2-JH2, Probe 1; for Biochemical assay Selectivity fold (TYK2/JAK1): TYK2-JH2 vs JAK1-JH2 biochemical IC50
T1 construct: TYK2-JH2 (aa 575-869, in-house) protein; made in house
T1 sequence (P29597 575-869): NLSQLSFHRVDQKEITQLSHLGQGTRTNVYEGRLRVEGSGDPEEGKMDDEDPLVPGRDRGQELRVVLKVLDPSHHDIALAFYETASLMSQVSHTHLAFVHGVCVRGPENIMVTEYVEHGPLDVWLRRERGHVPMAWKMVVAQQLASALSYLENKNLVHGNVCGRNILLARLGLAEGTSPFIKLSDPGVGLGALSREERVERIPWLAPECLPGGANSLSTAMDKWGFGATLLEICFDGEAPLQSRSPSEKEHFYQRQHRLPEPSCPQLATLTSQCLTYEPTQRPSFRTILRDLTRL
Procedure, shortened: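 Recombinant TYK2-JH2 (0.2 nM) pre-incubated with compounds (10 doses, 5-fold dilutions) 0.5 h at RT in HEPES pH 7.5 buffer with MgCl2, BSA, DTT, Brij-35; biotinylated probe (10 nM working solution, KD=10 nM) plus anti-6His Tb cryptate/streptavidin-XL665 added, 1 h RT. HTRF ratio read; IC50 from four-parameter logistic fit.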

[2] = target: T2, JAK1-JH2 protein (aa 561-860, in-house) (Homo sapiens, UniProt P23458); experiment: JAK1-JH2 biochemical assay (HTRF, blocking of JAK1-JH2 protein with its probe); assay type: binding; conditions: 1.17 nM recombinant JAK1-JH2, Probe 2
T2 construct: JAK1-JH2 protein (aa 561-860, in-house); made in house
T2 sequence (P23458 561-860): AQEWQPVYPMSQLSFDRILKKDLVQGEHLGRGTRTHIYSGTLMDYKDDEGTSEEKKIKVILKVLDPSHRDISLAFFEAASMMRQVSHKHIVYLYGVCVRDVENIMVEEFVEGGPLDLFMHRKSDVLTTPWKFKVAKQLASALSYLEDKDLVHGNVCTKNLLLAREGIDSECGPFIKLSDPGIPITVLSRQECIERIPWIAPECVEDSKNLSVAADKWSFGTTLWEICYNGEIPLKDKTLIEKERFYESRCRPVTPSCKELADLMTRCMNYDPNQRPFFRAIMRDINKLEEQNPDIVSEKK
Procedure, shortened: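 HTRF probe-displacement assay using recombinant human JAK1 pseudokinase domain (aa 561-860, 1.17 nM in pre-incubation step), pre-incubated 0.5 h at room temperature with 10-dose 5-fold compound series. Buffer: 20 mM HEPES pH 7.5, 10 mM MgCl2, 0.005% BSA, 2 mM DTT, 0.015% Brij-35. IC50 by four-parameter logistic fit of 615/665 nm ratio.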

[3] = system: JAK2, TYK2/p-STAT4 (Tyr693) activated by IL-12 in NK-92 cell line; experiment: IL-12-JAK2, TYK2/p-STAT4 (Tyr693) inhibition cellular assay; assay type: cell-based; conditions: for IC50: NK92, 0.5 h, read-out: Cellular assay pSTAT4/IL-12 IC50; for Cellular assay Selectivity fold (TYK2/JAK1): pSTAT4/IL-12 vs pSTAT3/IL-6 cellular IC50
Procedure, shortened: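 NK-92 cells were starved overnight without IL-2 and seeded at 5×10^4 per well in 1640 medium with 0.1% BSA. Lysate p-STAT4 (Tyr693) was measured by AlphaLISA SureFire, and IC50 was fitted with a 4-parameter logistic model.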

[4] = system: JAK1/p-STAT3(Tyr705) activated by IL-6 in TF-1 cell line; experiment: IL-6-JAK1/p-STAT3(Tyr705) inhibition cellular assay; assay type: cell-based; conditions: Homo sapiens, read-out: Cellular assay pSTAT3/IL-6 IC50
[5] = NK-92 cells, IL-12 40 ng/ml, 30 min
[6] = 0.5 h, TF-1 cells, IL-6 50 ng/ml, 30 min

## CNC(=O)c1nnc(NC(=O)C2CC2)cc1Nc1nc2ccc(C3CN(C(=O)c4cccnc4)C3)cn2n1 [Example L3, 6-(cyclopropanecarboxamido)-N-methyl-4-((6-(1-nicotinoylazetidin-3-yl)-[1,2,4]triazolo[1,5-a]pyridin-2-yl)amino)pyridazine-3-carboxamide]
[1]
  IC50: 0.072 nM
  Biochemical assay Selectivity fold (TYK2/JAK1): 21 fold
[2]
  IC50: 1.5 nM
[3]; [5]
  IC50: 127 nM
[3]
  Cellular assay Selectivity fold (TYK2/JAK1): >79 fold
[4]; [6]
  IC50: > 10000 nM

## CNC(=O)c1nnc(NC(=O)C2CC2)cc1Nc1nc2ccc(C3CN(C(=O)c4ncn(C)n4)C3)cn2n1 [Example L5, 6-(cyclopropanecarboxamido)-N-methyl-4-((6-(1-(1-methyl-1H-1,2,4-triazole-3-carbonyl)azetidin-3-yl)-[1,2,4]triazolo[1,5-a]pyridin-2-yl)amino)pyridazine-3-carboxamide]
[1]
  IC50: 0.076 nM
  Biochemical assay Selectivity fold (TYK2/JAK1): 22 fold
[2]
  IC50: 1.7 nM
[3]; [5]
  IC50: 2000 nM
[3]
  Cellular assay Selectivity fold (TYK2/JAK1): >5 fold
[4]; [6]
  IC50: > 10000 nM

## CNC(=O)c1nnc(NC(=O)C2CC2)cc1Nc1nc2ccc(C3CN(C(=O)N4CCOCC4)C3)cn2n1 [Example L6, 6-(cyclopropanecarboxamido)-N-methyl-4-((6-(1-(morpholine-4-carbonyl)azetidin-3-yl)-[1,2,4]triazolo[1,5-a]pyridin-2-yl)amino)pyridazine-3-carboxamide]
[1]
  IC50: 0.04 nM
  Biochemical assay Selectivity fold (TYK2/JAK1): 38 fold
[2]
  IC50: 1.5 nM
[3]; [5]
  IC50: 86 nM
[3]
  Cellular assay Selectivity fold (TYK2/JAK1): >117 fold
[4]; [6]
  IC50: > 10000 nM

## CNC(=O)c1nnc(NC(=O)C2CC2)cc1Nc1nc2ccc(C3CN(C)C3)cn2n1 [Example M1, 6-(cyclopropanecarboxamido)-N-methyl-4-((6-(1-methylazetidin-3-yl)-[1,2,4]triazolo[1,5-a]pyridin-2-yl)amino)pyridazine-3-carboxamide]
[1]
  IC50: 0.26 nM
  Biochemical assay Selectivity fold (TYK2/JAK1): 10 fold
[2]
  IC50: 2.6 nM
[3]; [5]
  IC50: 63 nM
[3]
  Cellular assay Selectivity fold (TYK2/JAK1): >158 fold
[4]; [6]
  IC50: > 10000 nM

## CNC(=O)c1nnc(NC(=O)C2CC2)cc1Nc1nc2c(OC)cc(N3CCC3)cn2n1 [Example N1, 4-((6-(azetidin-1-yl)-8-methoxy-[1,2,4]triazolo[1,5-a]pyridin-2-yl)amino)-6-(cyclopropanecarboxamido)-N-methylpyridazine-3-carboxamide]
[1]
  IC50: 0.87 nM
  Biochemical assay Selectivity fold (TYK2/JAK1): 2 fold
[2]
  IC50: 1.4 nM
[3]; [5]
  IC50: 687 nM
[3]
  Cellular assay Selectivity fold (TYK2/JAK1): >14 fold
[4]; [6]
  IC50: > 10000 nM

## CNC(=O)c1nnc(NC(=O)C2CC2)cc1Nc1nc2c(F)cc(N3CCC3)cn2n1 [Example N2, 4-((6-(azetidin-1-yl)-8-fluoro-[1,2,4]triazolo [1,5-a]pyridin-2-yl)amino)-6-(cyclopropanecarboxamido)-N-methylpyridazine-3-carboxamide]
[1]
  IC50: 0.063 nM
  Biochemical assay Selectivity fold (TYK2/JAK1): 20 fold
[2]
  IC50: 1.28 nM
[3]; [5]
  IC50: 14 nM
[3]
  Cellular assay Selectivity fold (TYK2/JAK1): 688 fold
[4]; [6]
  IC50: 9640 nM

## CNC(=O)c1nnc(NC(=O)C2CC2)cc1Nc1nc2c(C)cc(N3CCC3)cn2n1 [Example N3]
[1]
  IC50: 0.089 nM
  Biochemical assay Selectivity fold (TYK2/JAK1): 17 fold
[2]
  IC50: 1.47 nM
[3]; [5]
  IC50: 21 nM
[3]
  Cellular assay Selectivity fold (TYK2/JAK1): 192 fold
[4]; [6]
  IC50: 4100 nM

## CNC(=O)c1nnc(NC(=O)C2CC2)cc1Nc1nc2ccc(C(=O)N3CCC3)cn2n1 [Example O1, 4-((6-(azetidine-1-carbonyl)-[1,2,4]triazolo[1,5-a]pyridin-2-yl)amino)-6-(cyclopropanecarboxamido)-N-methylpyridazine-3-carboxamide]
[1]
  IC50: 0.17 nM
  Biochemical assay Selectivity fold (TYK2/JAK1): 6 fold
[2]
  IC50: 1.06 nM
[3]
  IC50: 169 nM
  Cellular assay Selectivity fold (TYK2/JAK1): 28 fold
[4]; TF-1, 0.5 h
  IC50: 4880 nM

## CNC(=O)c1nnc(NC(=O)C2CC2)cc1Nc1nc2ccc(N3CCC(C4CN(C)C4)CC3)cn2n1 [Example P1, 6-(cyclopropanecarboxamido)-N-methyl-4-((6-(4-(1-methylazetidin-3-yl)piperidin-1-yl)-[1,2,4]triazolo[1,5-a]pyridin-2-yl)amino)pyridazine-3-carboxamide]
[1]
  IC50: 0.039 nM
  Biochemical assay Selectivity fold (TYK2/JAK1): 36 fold
[2]
  IC50: 1.4 nM
[3]; [5]
  IC50: 29 nM
[3]
  Cellular assay Selectivity fold (TYK2/JAK1): >344 fold
[4]; [6]
  IC50: > 10000 nM

## CNC(=O)c1nnc(NC(=O)C2CC2)cc1Nc1nc2ccc(N3CC(C(=O)N4CCSC4)C3)cn2n1 [Example Q1, 6-(cyclopropanecarboxamido)-N-methyl-4-((6-(3-(thiazolidine-3-carbonyl)azetidin-1-yl)-[1,2,4]triazolo[1,5-a]pyridin-2-yl)amino)pyridazine-3-carboxamide]
[1]
  IC50: 0.16 nM
  Biochemical assay Selectivity fold (TYK2/JAK1): 14 fold
[2]
  IC50: 2.18 nM
[3]; [5]
  IC50: 157 nM
[3]
  Cellular assay Selectivity fold (TYK2/JAK1): >64 fold
[4]; [6]
  IC50: > 10000 nM
